Assay results from patent publication US8372854B2, “Pyrrolo[2,3-D]pyrimidine compounds” (Pfizer Inc., priority 2009, dated 2013).

Assays:
Assay type in all cases: biochemical
JAK1 = molecular target: T1, JAK1 (Homo sapiens, UniProt P23458); assay: JAK enzymatic assay (peptide mobility shift), JAK1; settings: recombinant JAK1 20 nM, ATP 40 μM, 1 μM IRS-1 peptide, 240 minutes
T1 construct: purchased Invitrogen Corporation, Madison, Wis; PV4775
How it was run: (§1)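 Caliper mobility-shift assay of peptide phosphorylation (1 μM peptide) in pH 7.4 HEPES with MgCl2, BSA, Tween-20 and 2% DMSO. JAK1 used 20 nM enzyme, 40 μM ATP, IRS-1 peptide, 240 min; JAK2 used 2 nM, 4 μM ATP, JAKtide, 150 min; JAK3 used 1 nM, 4 μM ATP, JAKtide, 90 min. IC50s came from 11-point 4-parameter fits.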

JAK2 = molecular target: T2, JAK2 (Homo sapiens, UniProt O60674); assay: JAK enzymatic assay (peptide mobility shift), JAK2; settings: recombinant JAK2 2 nM, ATP 4 μM, 1 μM JAKtide peptide, 150 minutes
T2 construct: purchased Invitrogen Corporation, Madison, Wis; PV4210
T2 sequence (O60674 whole entry): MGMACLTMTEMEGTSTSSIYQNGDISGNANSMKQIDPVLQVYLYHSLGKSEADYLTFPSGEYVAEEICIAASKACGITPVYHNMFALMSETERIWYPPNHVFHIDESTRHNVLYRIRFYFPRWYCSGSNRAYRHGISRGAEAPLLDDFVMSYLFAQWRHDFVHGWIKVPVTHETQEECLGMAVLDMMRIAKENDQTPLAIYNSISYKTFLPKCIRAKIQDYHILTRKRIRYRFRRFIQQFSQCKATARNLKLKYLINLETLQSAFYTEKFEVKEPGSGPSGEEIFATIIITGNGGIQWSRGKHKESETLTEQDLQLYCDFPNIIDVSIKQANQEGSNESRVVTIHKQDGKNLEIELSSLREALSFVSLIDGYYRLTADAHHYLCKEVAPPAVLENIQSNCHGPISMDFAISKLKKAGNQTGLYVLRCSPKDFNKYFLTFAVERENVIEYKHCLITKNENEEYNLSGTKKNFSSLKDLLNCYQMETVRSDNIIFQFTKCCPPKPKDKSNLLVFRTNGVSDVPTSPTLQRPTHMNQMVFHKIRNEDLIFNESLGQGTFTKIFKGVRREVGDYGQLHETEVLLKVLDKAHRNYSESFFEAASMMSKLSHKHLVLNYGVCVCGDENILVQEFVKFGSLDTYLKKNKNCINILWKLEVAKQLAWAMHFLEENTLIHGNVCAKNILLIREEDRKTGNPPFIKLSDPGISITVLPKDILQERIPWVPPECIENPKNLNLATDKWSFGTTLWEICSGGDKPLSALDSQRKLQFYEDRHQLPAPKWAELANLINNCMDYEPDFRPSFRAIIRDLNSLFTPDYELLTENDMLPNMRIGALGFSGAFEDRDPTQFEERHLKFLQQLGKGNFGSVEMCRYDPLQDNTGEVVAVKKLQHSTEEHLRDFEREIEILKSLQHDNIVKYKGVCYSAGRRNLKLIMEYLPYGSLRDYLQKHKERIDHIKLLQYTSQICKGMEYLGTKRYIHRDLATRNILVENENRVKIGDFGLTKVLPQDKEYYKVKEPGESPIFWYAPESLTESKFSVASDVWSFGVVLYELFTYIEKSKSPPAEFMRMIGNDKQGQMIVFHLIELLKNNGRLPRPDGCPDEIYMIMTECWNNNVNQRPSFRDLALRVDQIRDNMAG
How it was run: as §1

JAK3 = molecular target: T3, JAK3 (Homo sapiens, UniProt P52333); assay: JAK enzymatic assay (peptide mobility shift), JAK3; settings: recombinant JAK3 1 nM, ATP 4 μM, 1 μM JAKtide peptide, 90 minutes
T3 construct: purchased Invitrogen Corporation, Madison, Wis; PV3855
T3 sequence (P52333 1-1124): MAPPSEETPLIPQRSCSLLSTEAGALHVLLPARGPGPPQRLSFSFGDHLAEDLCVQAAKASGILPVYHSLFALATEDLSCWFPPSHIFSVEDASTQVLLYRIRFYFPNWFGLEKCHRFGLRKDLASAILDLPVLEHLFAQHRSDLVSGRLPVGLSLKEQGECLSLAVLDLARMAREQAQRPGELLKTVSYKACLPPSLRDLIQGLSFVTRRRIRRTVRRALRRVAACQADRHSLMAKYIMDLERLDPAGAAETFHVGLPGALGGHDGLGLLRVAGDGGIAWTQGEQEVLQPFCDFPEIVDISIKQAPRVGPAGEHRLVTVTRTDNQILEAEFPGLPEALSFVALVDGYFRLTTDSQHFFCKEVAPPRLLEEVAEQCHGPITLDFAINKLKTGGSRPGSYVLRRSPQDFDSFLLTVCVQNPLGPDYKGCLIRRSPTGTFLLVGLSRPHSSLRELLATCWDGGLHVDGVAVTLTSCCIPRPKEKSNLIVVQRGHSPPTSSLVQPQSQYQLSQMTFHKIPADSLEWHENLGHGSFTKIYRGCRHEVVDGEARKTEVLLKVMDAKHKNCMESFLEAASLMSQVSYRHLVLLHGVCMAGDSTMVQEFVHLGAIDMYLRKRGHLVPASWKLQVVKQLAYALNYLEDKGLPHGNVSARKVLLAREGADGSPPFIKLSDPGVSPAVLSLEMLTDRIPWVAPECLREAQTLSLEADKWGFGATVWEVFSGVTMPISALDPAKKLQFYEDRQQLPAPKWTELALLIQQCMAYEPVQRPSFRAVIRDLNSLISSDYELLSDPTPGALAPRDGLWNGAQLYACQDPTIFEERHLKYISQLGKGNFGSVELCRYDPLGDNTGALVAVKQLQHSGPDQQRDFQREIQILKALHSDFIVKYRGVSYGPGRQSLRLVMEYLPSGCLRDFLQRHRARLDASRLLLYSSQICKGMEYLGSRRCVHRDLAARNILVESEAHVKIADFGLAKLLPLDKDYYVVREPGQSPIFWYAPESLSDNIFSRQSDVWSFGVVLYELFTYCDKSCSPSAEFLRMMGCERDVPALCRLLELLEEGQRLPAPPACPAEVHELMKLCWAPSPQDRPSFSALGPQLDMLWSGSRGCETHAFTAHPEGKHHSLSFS

T1 sequence (P23458 whole entry): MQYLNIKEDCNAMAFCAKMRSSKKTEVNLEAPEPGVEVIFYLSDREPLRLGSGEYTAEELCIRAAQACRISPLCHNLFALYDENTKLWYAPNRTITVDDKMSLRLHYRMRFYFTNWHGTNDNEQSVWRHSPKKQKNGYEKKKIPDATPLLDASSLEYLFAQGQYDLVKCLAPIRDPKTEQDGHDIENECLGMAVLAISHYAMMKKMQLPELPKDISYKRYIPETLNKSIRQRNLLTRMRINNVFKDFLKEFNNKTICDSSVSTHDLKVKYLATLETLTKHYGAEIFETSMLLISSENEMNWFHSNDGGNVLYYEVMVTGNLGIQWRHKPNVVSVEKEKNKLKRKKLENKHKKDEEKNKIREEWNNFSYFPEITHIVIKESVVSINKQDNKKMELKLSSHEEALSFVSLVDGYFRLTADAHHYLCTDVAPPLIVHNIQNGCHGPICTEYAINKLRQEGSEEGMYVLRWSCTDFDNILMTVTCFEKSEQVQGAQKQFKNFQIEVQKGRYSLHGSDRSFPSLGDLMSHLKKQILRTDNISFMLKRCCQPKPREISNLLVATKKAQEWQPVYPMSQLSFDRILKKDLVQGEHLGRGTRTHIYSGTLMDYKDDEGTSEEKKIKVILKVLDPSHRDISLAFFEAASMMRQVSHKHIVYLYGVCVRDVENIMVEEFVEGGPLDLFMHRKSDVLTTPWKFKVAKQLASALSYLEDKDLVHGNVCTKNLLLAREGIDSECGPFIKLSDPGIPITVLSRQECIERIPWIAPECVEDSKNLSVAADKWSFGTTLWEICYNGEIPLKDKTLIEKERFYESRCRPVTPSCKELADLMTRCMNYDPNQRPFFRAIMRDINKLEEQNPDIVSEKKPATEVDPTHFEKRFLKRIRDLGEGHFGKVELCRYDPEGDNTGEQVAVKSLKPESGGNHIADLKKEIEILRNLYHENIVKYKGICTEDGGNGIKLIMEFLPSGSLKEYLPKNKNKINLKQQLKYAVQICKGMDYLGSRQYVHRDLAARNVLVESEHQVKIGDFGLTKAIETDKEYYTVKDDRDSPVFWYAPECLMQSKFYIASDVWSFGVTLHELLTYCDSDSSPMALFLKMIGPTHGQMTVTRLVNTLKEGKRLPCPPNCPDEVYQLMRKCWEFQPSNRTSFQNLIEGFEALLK

SMILES	IC50 (JAK1)	IC50 (JAK2)	IC50 (JAK3)
Cc1ccc(CCNS(=O)(=O)C[C@H]2CC[C@H](N(C)c3ncnc4[nH]ccc34)CC2)c(C)c1 [Example 4, N-[2-(2,4-dimethylphenyl)-ethyl]-1-{trans-4-[methyl-(7H-pyrrolo[2,3-d]pyrimidin-4-yl)amino]cyclohexyl}-methanesulfonamide]	3.01 nM	9.17 nM	139 nM
CN(c1ncnc2[nH]ccc12)[C@H]1CC[C@H](CS(=O)(=O)Nc2ccc(CC#N)cc2)CC1 [Example 20, N-[4-(cyanomethyl)phenyl]-1-{trans-4-[methyl(7H-pyrrolo[2,3-d]pyrimidin-4-yl)amino]cyclohexyl}methane-sulfonamide]	9.58 nM	38.1 nM	96.1 nM
CN(c1ncnc2[nH]ccc12)[C@H]1CC[C@H](CS(=O)(=O)NCC(F)c2ccc(F)cc2)CC1 (stereo partly drawn) [Example 11, N-[2-fluoro-2-(4-fluoro-phenyl)ethyl]-1-{trans-4-[methyl(7H-pyrrolo[2,3-d]-pyrimidin-4-yl)amino]-cyclohexyl}-methanesulfonamide]	13.5 nM	61.9 nM	424 nM
CN(c1ncnc2[nH]ccc12)[C@H]1CC[C@H](CS(=O)(=O)Nc2ccc(Cl)nc2)CC1 [Example 25, N-(6-chloropyridin-3-yl)-1-{trans-4-[methyl(7H-pyrrolo[2,3-d]pyrimidin-4-yl)-amino]cyclohexyl}-methanesulfonamide]	18.6 nM	57.4 nM	228 nM
CN(c1ncnc2[nH]ccc12)[C@H]1CC[C@H](CS(=O)(=O)NCCc2cccc(F)c2)CC1 [Example 33, N-[2-(3-fluorophenyl)ethyl]-1-{trans-4-[methyl(7H-pyrrolo[2,3-d]pyrimidin-4-yl)amino]cyclohexyl}-methanesulfonamide]	4.95 nM	24.2 nM	192 nM
Cc1ccc(CCNS(=O)(=O)C[C@H]2CC[C@H](N(C)c3ncnc4[nH]ccc34)CC2)cc1 [Example 7, N-[2-(4-methylphenyl)-ethyl]-1-{trans-4-[methyl-(7H-pyrrolo[2,3-d]pyrimidin-4-yl)amino]cyclohexyl}-methanesulfonamide]	4.44 nM	11.3 nM	137 nM
COc1ccc(CNS(=O)(=O)C[C@H]2CC[C@H](N(C)c3ncnc4[nH]ccc34)CC2)cc1 [Example 18, N-(4-methoxybenzyl)-1-{trans-4-[methyl(7H-pyrrolo[2,3-d]-pyrimidin-4-yl)amino]-cyclo-hexyl}methanesulfonamide]	21.3 nM	27.5 nM	175 nM

Next, values leading:

IC50 (JAK1)	IC50 (JAK2)	IC50 (JAK3)	SMILES
9.79 nM	30.6 nM	240 nM	CN(c1ncnc2[nH]ccc12)[C@H]1CC[C@H](CS(=O)(=O)NCC(O)c2ccc(F)c(F)c2)CC1 (stereo partly drawn) [Example 39, N-[2-(3,4-difluorophenyl)-2-hydroxyethyl]-1-{trans-4-[methyl(7H-pyrrolo[2,3-d]pyrimidin-4-yl)amino]-cyclohexyl}-methanesulfonamide]
6.85 nM	76.1 nM	622 nM	CN(Cc1cccnc1)S(=O)(=O)C[C@H]1CC[C@H](N(C)c2ncnc3[nH]ccc23)CC1 [Example 35, N-methyl-1-{trans-4-[methyl(7H-pyrrolo[2,3-d]-pyrimidin-4-yl)amino]-cyclohexyl}-N-(pyridin-3-ylmethyl)-methanesulfonamide]
24 nM	107 nM	762 nM	Cc1nn(C)cc1CNS(=O)(=O)C[C@H]1CC[C@H](N(C)c2ncnc3[nH]ccc23)CC1 [Example 52, N-[(1,3-dimethyl-1H-pyrazol-4-yl)methyl]-1-{trans-4-[methyl(7H-pyrrolo[2,3-d]pyrimidin-4-yl)amino]cyclohexyl}-methanesulfonamide]
16.1 nM	174 nM	1060 nM	CN(c1ncnc2[nH]ccc12)[C@H]1CC[C@H](CS(=O)(=O)NC[C@H]2CCCO2)CC1 [Example 47, 1-{trans-4-[methyl(7H-pyrrolo[2,3-d]pyrimidin-4-yl)amino]cyclohexyl}-N-[(2R)-tetrahydrofuran-2-ylmethyl]-methanesulfonamide]
19.6 nM	66 nM	267 nM	CN(c1ncnc2[nH]ccc12)[C@H]1CC[C@H](CS(=O)(=O)NCCC(F)=C(F)F)CC1 [Example 48, 1-{trans-4-[methyl(7H-pyrrolo[2,3-d]pyrimidin-4-yl)amino]cyclohexyl}-N-(3,4,4-trifluorobut-3-en-1-yl)methanesulfonamide]
15.6 nM	18.4 nM	355 nM	CN(c1ncnc2[nH]ccc12)[C@H]1CC[C@H](CS(=O)(=O)N[C@@H]2CCC[C@@H]2c2ccc(F)cc2)CC1 [Example 46, N-[(1R,2R)-2-(4-fluoro-phenyl)cyclopentyl]-1-{trans-4-[methyl(7H-pyrrolo[2,3-d]pyrimidin-4-yl)amino]cyclohexyl}-methanesulfonamide]
10.7 nM	29.8 nM	208 nM	COc1ccccc1CCCNS(=O)(=O)C[C@H]1CC[C@H](N(C)c2ncnc3[nH]ccc23)CC1 [Example 40, N-[3-(2-methoxyphenyl)-propyl]-1-{trans-4-[methyl(7H-pyrrolo[2,3-d]-pyrimidin-4-yl)amino]-cyclohexyl}-methanesulfonamide]
